A value given as a limit tells only on which side of the number the result lay.

Data on 6 molecules can be found in patent US4606911A, “Pharmaceutical composition for the prevention of dental caries” (Rohto Pharmaceutical Co. Ltd., priority 1984, dated 1986).

Assay [1] deals with S. mutans OMZ 176 (serotype d). The experiment in a line: microbe, parasite or virus in culture. Format: cell-based. The conditions noted are these: for inhibition at 10 µg/mL / inhibition at 20 µg/mL / inhibition at 30 µg/mL / inhibition at 50 µg/mL / inhibition at 100 µg/mL: Streptococcus mutans, read-out: Adherence-inhibiting activity (AIP); for adherence-inhibiting activity (in words): text statement. How it is done:
The adherence-inhibiting activity of the triterpenes of the formula (I) was measured using an inner wall of a test tube in place of the surface of a tooth.
To 2.9 ml of BHI medium containing 5% sucrose in a test tube (i) are added 30 μl of a sample solution prepared by dissolving a compound of: the formula (I) in H2 O or dimethylsulfoxide (DMSO) and 100 μl of culture medium containing S. mutans OMZ 176 (serotype d) which was preincuvated at 37° C. for 24 hours in BHI medium, and the mixture is incubated at 37° C. for 20 hours, with the test tube being maintained at a slant of 30°. The test tube is revolved gently two or three times and the supernatant is transferred to another test tube (ii). To the first test tube (i) is added 3 ml of 50 mM phosphate buffer (pH 7.5), and the test tube is gently revolved two or three times. The resultant supernatant is transferred to the third test tube (iii). The test tubes (ii) and (iii) are each centrifuged and respective supernatants are discarded. To each of the test tubes (i), (ii) and (iii) is added 3 ml of 0.5M NaOH, and the test tubes are shaken to suspend bacterial cells. Absorbance of the resulting suspension is measured at 660 nm. The absorbances obtained with respect to the test tube (i), (ii) and (iii) are represented by Ab(i), Ab(ii) and Ab(iii), respectively. Ab(i) reflects the amount of the bacterial cells adhered to the wall of the test tube and Ab(ii) and Ab(iii) correspond to the amount of the bacterial cells not adhered to the wall.
The same procedure is repeated using 30 μl of distilled water or DMSO in place of the sample solution to obtain a control. The absorbance of the control is represented by Ab(Cont.).
Adherence percentage of bacteria is calculated from the following equation. [formula]
Adherence inhibitory percentage (AIP) is calculated using the adherence percentage according to the following equation. [formula]
The magnitude of adherence-inhibiting activity of each of the samples is shown, in Table 3, by the use of the following symbols: […]

The subject of assay [2] is Streptococcus mutans OMZ 176. Put plainly: Antibacterial activity (MIC, growth in BHI medium). The format is cell-based. To be noted: text statement. How it is done: To a test tube was charged 3.8 ml of Brain Heart Infusion (BHI) medium, and 100 μl of a sample solution containing oleanolic, ursolic or glycyrrhetic acid and 100 μl of pre-incubated culture of bacterium selected from those listed below were added thereto. The mixture was incubated at 37° C. and then allowed to stand over night. The extent of the growth of bacterium was observed after two or five days.
Streptococcus mutans OMZ 176

For `CC1(C)[C@@H](O[C@H]2O[C@H](C(=O)O)[C@@H](O)[C@H](O)[C@H]2O[C@@H]2O[C@H](C(=O)O)[C@@H](O)[C@H](O)[C@H]2O)CC[C@]2(C)[C@H]3C(=O)C=C4[C@@H]5C[C@@](C)(C(=O)O)CC[C@]5(C)CC[C@@]4(C)[C@]3(C)CC[C@@H]12` [Glycyrrizic acid, reference compound], in assay [1], the inhibition at 10 µg/mL was under 25%, the inhibition at 20 µg/mL is under 25%, the inhibition at 30 µg/mL is under 25% and the inhibition at 50 µg/mL is under 25%. In assay [1], the inhibition at 100 µg/mL is under 25% and the “adherence-inhibiting activity (in words)” value is given as “could not be observed”. In assay [2], the “antibacterial activity to S. mutans (in words)” value (shortened to “antibacterial activity”) is listed as “could not be observed”.
With `COC(=O)[C@]12CCC(C)(C)C[C@H]1C1=CC[C@@H]3[C@@]4(C)CC[C@H](O)C(C)(C)[C@@H]4CC[C@@]3(C)[C@]1(C)CC2` [Methyl oleanolate (17-position) (a), Methyl oleanolate, reference compound], in assay [1], the inhibition at 10 µg/mL is under 25%, the inhibition at 20 µg/mL is under 25%, the inhibition at 30 µg/mL is under 25% and the inhibition at 50 µg/mL was under 25%. Also, the inhibition at 100 µg/mL in assay [1] is under 25%.
With `CC1(C)CC[C@]2(CO)CC[C@]3(C)C(=CC[C@@H]4[C@@]5(C)CC[C@H](O)C(C)(C)[C@@H]5CC[C@]43C)[C@@H]2C1` [Oleanolic acid (acid reductant) (b), reference compound], in assay [1], the inhibition at 10 µg/mL is under 25%, the inhibition at 20 µg/mL was under 25%, the inhibition at 30 µg/mL was under 25% and the inhibition at 50 µg/mL was under 25%. Further, the inhibition at 100 µg/mL in assay [1] is under 25%.
In the case of `CC1(C)CC[C@]2(C)CC=C3[C@]4(C)CC[C@H]5C(C)(C)[C@@H](O)CC[C@]5(C)[C@H]4CC[C@@]3(C)[C@@H]2C1` [Taraxerol, reference compound], in assay [1], the inhibition at 10 µg/mL was under 25%, the inhibition at 20 µg/mL is under 25%, the inhibition at 30 µg/mL is under 25% and the inhibition at 50 µg/mL was under 25%. In assay [1], the inhibition at 100 µg/mL was under 25% and the “adherence-inhibiting activity (in words)” value is reported as “could not be observed”. In addition, the “antibacterial activity” value in assay [2] was “could not be observed”.
Turning to `CC(=O)O[C@H]1CC[C@]2(C)[C@H]3CC=C4[C@@H]5CC(C)(C)CC[C@]5(C(=O)O)CC[C@@]4(C)[C@]3(C)CC[C@H]2C1(C)C` [reference compound], in assay [1], the inhibition at 10 µg/mL was under 25%, the inhibition at 20 µg/mL was under 25%, the inhibition at 30 µg/mL is under 25% and the inhibition at 50 µg/mL is 25 to 50%. The inhibition at 100 µg/mL in assay [1] fell in the range of 25 to 50%.
As for “Chikusetsusaponin V [Chikusetsusaponin V (e), reference compound]”, in assay [1], the “adherence-inhibiting activity (in words)” value is reported as “could not be observed”. Moreover, the “antibacterial activity” value in assay [2] is recorded as “could not be observed”.
